# From ChEMBL document CHEMBL5543142, “Discovery of YFJ-36: Design, Synthesis, and Antibacterial Activities of Catechol-Conjugated β-Lactams against Gram-Negative Bacteria” (J Med Chem, 2024)
# Columns and labels:
# Pseudomonas aeruginosa [1] = assay: Antibacterial activity against IMP-4 producing multidrug-resistant Pseudomonas aeruginosa clinical isolate 17-13 assessed as inhibition of bacterial growth incubated for 18 to 20 hrs by two fold serial dilution assay; format: functional; conditions: time 18-20 hrs
# hERG (KCNH2) = hERG (KCNH2) (Homo sapiens, UniProt Q12809); assay: Inhibition of hERG at 40 uM by whole cell Qpatch assay relative to control; format: toxicity
# Escherichia coli [2] = assay: Antibacterial activity against Escherichia coli ATCC35218 assessed as inhibition of bacterial growth incubated for 18 to 20 hrs by two fold serial dilution assay; format: functional; conditions: time 18-20 hrs
# Escherichia coli [3] = assay: Antibacterial activity against ESBL-producing multidrug-resistant Escherichia coli clinical isolate 14-2 assessed as inhibition of bacterial growth incubated for 18 to 20 hrs by two fold serial dilution assay; format: functional; conditions: time 18-20 hrs
# Escherichia coli [4] = assay: Antibacterial activity against Escherichia coli ATCC-35218 infected in ICR mouse assessed as inhibition of bacterial growth at iv after 1 and 5 hour of post-infection measured after 7 days; format: functional; conditions: ATCC-35218, 168 h, time 7 day
# Acinetobacter baumannii [5] = assay: Antibacterial activity against OXA-23 producing multidrug-resistant Acinetobacter baumannii clinical isolate 17-3 assessed as inhibition of bacterial growth incubated for 18 to 20 hrs by two fold serial dilution assay; format: functional; conditions: time 18-20 hrs
# Klebsiella pneumoniae [6] = assay: Antibacterial activity against KPC-2 producing multidrug-resistant Klebsiella pneumoniae clinical isolate 15-5 assessed as inhibition of bacterial growth incubated for 18 to 20 hrs by two fold serial dilution assay; format: functional; conditions: time 18-20 hrs
# Escherichia coli [7] = assay: Antibacterial activity against Escherichia coli NCTC-13353 assessed as inhibition of bacterial growth incubated for 18 to 20 hrs in presence of iron-depleted CAMHB medium by two fold serial dilution assay; format: functional; conditions: time 18-20 hrs
# Pseudomonas aeruginosa [8] = assay: Antibacterial activity against IMP-4 producing multidrug-resistant Pseudomonas aeruginosa clinical isolate 17-1 assessed as inhibition of bacterial growth incubated for 18 to 20 hrs by two fold serial dilution assay; format: functional; conditions: time 18-20 hrs
# Acinetobacter baumannii [9] = assay: Antibacterial activity against OXA-23 producing multidrug-resistant Acinetobacter baumannii clinical isolate 17-6 assessed as inhibition of bacterial growth incubated for 18 to 20 hrs by two fold serial dilution assay; format: functional; conditions: time 18-20 hrs
# Escherichia coli [10] = assay: Antibacterial activity against Escherichia coli NCTC-13353 assessed as inhibition of bacterial growth incubated for 18 to 20 hrs in presence of CAMHB medium by two fold serial dilution assay; format: functional; conditions: time 18-20 hrs
# Klebsiella pneumoniae [11] = assay: Antibacterial activity against Klebsiella pneumoniae ATCC BAA-1898 assessed as inhibition of bacterial growth incubated for 18 to 20 hrs in presence of iron-depleted CAMHB medium by two fold serial dilution assay; format: functional; conditions: time 18-20 hrs
# Acinetobacter baumannii [12] = assay: Antibacterial activity against OXA-23 producing multidrug-resistant Acinetobacter baumannii clinical isolate 17-5 assessed as inhibition of bacterial growth incubated for 18 to 20 hrs by two fold serial dilution assay; format: functional; conditions: time 18-20 hrs
# Pseudomonas aeruginosa [13] = assay: Antibacterial activity against IMP-4 producing multidrug-resistant Pseudomonas aeruginosa clinical isolate 19-1 assessed as inhibition of bacterial growth incubated for 18 to 20 hrs by two fold serial dilution assay; format: functional; conditions: time 18-20 hrs
# Pseudomonas aeruginosa [14] = assay: Antibacterial activity against IMP-4 producing multidrug-resistant Pseudomonas aeruginosa clinical isolate 19-5 assessed as inhibition of bacterial growth incubated for 18 to 20 hrs by two fold serial dilution assay; format: functional; conditions: time 18-20 hrs
# Escherichia coli [15] = assay: Antibacterial activity against Escherichia coli ATCC-35218 assessed as inhibition of bacterial growth incubated for 18 to 20 hrs in presence of CAMHB medium by two fold serial dilution assay; format: functional; conditions: time 18-20 hrs
# Acinetobacter baumannii [16] = assay: Antibacterial activity against OXA-23 producing multidrug-resistant Acinetobacter baumannii clinical isolate 17-2 assessed as inhibition of bacterial growth incubated for 18 to 20 hrs by two fold serial dilution assay; format: functional; conditions: time 18-20 hrs
# Escherichia coli [17] = assay: Antibacterial activity against Escherichia coli ATCC-35218 assessed as inhibition of bacterial growth incubated for 18 to 20 hrs in presence of iron-depleted CAMHB medium by two fold serial dilution assay; format: functional; conditions: time 18-20 hrs
# Acinetobacter baumannii [18] = assay: Antibacterial activity against multidrug-resistant Acinetobacter baumannii BM-2023-D2-010 infected in ICR mouse assessed as inhibition of bacterial growth by measuring its effective dose at iv after 1 and 5 hour of post-infection measured after 7 days; format: functional; conditions: BM-2023-D2-010, 168 h, time 7 day
# Klebsiella pneumoniae [19] = assay: Antibacterial activity against Klebsiella pneumoniae ATCC BAA-1898 assessed as inhibition of bacterial growth incubated for 18 to 20 hrs in presence of CAMHB medium by two fold serial dilution assay; format: functional; conditions: time 18-20 hrs
# Klebsiella pneumoniae [20] = assay: Antibacterial activity against KPC-2 producing multidrug-resistant Klebsiella pneumoniae clinical isolate 15-2 assessed as inhibition of bacterial growth incubated for 18 to 20 hrs by two fold serial dilution assay; format: functional; conditions: time 18-20 hrs
# Acinetobacter baumannii [21] = assay: Antibacterial activity against multidrug-resistant Acinetobacter baumannii BM-2023-D2-010 infected in ICR mouse assessed as inhibition of bacterial growth at iv after 1 and 5 hour of post-infection measured after 7 days; format: functional; conditions: BM-2023-D2-010, 168 h, time 7 day
# Escherichia coli [22] = assay: Antibacterial activity against ESBL-producing multidrug-resistant Escherichia coli clinical isolate 14-1 assessed as inhibition of bacterial growth incubated for 18 to 20 hrs by two fold serial dilution assay; format: functional; conditions: time 18-20 hrs
# Klebsiella pneumoniae [23] = assay: Antibacterial activity against KPC-2 producing multidrug-resistant Klebsiella pneumoniae clinical isolate 15-1 assessed as inhibition of bacterial growth incubated for 18 to 20 hrs by two fold serial dilution assay; format: functional; conditions: time 18-20 hrs
# Escherichia coli [24] = assay: Antibacterial activity against ESBL-producing multidrug-resistant Escherichia coli clinical isolate 14-4 assessed as inhibition of bacterial growth incubated for 18 to 20 hrs by two fold serial dilution assay; format: functional; conditions: time 18-20 hrs
# Klebsiella pneumoniae [25] = assay: Antibacterial activity against KPC-2 producing multidrug-resistant Klebsiella pneumoniae clinical isolate 15-3 assessed as inhibition of bacterial growth incubated for 18 to 20 hrs by two fold serial dilution assay; format: functional; conditions: time 18-20 hrs
# Acinetobacter baumannii [26] = assay: Antibacterial activity against OXA-23 producing multidrug-resistant Acinetobacter baumannii clinical isolate 17-7 assessed as inhibition of bacterial growth incubated for 18 to 20 hrs by two fold serial dilution assay; format: functional; conditions: time 18-20 hrs
# Acinetobacter baumannii [27] = assay: Antibacterial activity against OXA-23 producing multidrug-resistant Acinetobacter baumannii clinical isolate 17-8 assessed as inhibition of bacterial growth incubated for 18 to 20 hrs by two fold serial dilution assay; format: functional; conditions: time 18-20 hrs
# Pseudomonas aeruginosa [28] = assay: Antibacterial activity against IMP-4 producing multidrug-resistant Pseudomonas aeruginosa clinical isolate 19-17 assessed as inhibition of bacterial growth incubated for 18 to 20 hrs by two fold serial dilution assay; format: functional; conditions: time 18-20 hrs
# [29] = Plasma protein binding in mouse incubated for 35 mins by LC-MS/MS analysis; format: ADME, cell-free; conditions: read-out: PPB (converted)
# [30] = target: Voltage-gated inwardly rectifying potassium channel KCNH2 (Homo sapiens, UniProt Q12809); assay: Inhibition of hERG by whole cell Qpatch assay; format: toxicity
# Acinetobacter baumannii [31] = assay: Antibacterial activity against OXA-23 producing multidrug-resistant Acinetobacter baumannii clinical isolate 15-4 assessed as inhibition of bacterial growth incubated for 18 to 20 hrs by two fold serial dilution assay; format: functional; conditions: time 18-20 hrs
# Pseudomonas aeruginosa [32] = assay: Antibacterial activity against IMP-4 producing multidrug-resistant Pseudomonas aeruginosa clinical isolate 15-1 assessed as inhibition of bacterial growth incubated for 18 to 20 hrs by two fold serial dilution assay; format: functional; conditions: time 18-20 hrs
# Acinetobacter baumannii [33] = assay: Antibacterial activity against OXA-23 producing multidrug-resistant Acinetobacter baumannii clinical isolate 15-5 assessed as inhibition of bacterial growth incubated for 18 to 20 hrs by two fold serial dilution assay; format: functional; conditions: time 18-20 hrs
# Acinetobacter baumannii [34] = assay: Antibacterial activity against OXA-23 producing multidrug-resistant Acinetobacter baumannii clinical isolate 15-3 assessed as inhibition of bacterial growth incubated for 18 to 20 hrs by two fold serial dilution assay; format: functional; conditions: time 18-20 hrs
# Acinetobacter baumannii [35] = assay: Antibacterial activity against OXA-23 producing multidrug-resistant Acinetobacter baumannii clinical isolate 15-2 assessed as inhibition of bacterial growth incubated for 18 to 20 hrs by two fold serial dilution assay; format: functional; conditions: time 18-20 hrs
# Acinetobacter baumannii [36] = assay: Antibacterial activity against OXA-23 producing multidrug-resistant Acinetobacter baumannii clinical isolate 15-1 assessed as inhibition of bacterial growth incubated for 18 to 20 hrs by two fold serial dilution assay; format: functional; conditions: time 18-20 hrs
# Pseudomonas aeruginosa [37] = assay: Antibacterial activity against IMP-4 producing multidrug-resistant Pseudomonas aeruginosa clinical isolate 15-5 assessed as inhibition of bacterial growth incubated for 18 to 20 hrs by two fold serial dilution assay; format: functional; conditions: time 18-20 hrs
# Pseudomonas aeruginosa [38] = assay: Antibacterial activity against IMP-4 producing multidrug-resistant Pseudomonas aeruginosa clinical isolate 15-4 assessed as inhibition of bacterial growth incubated for 18 to 20 hrs by two fold serial dilution assay; format: functional; conditions: time 18-20 hrs
# Pseudomonas aeruginosa [39] = assay: Antibacterial activity against Pseudomonas aeruginosa ATCC 27853 assessed as inhibition of bacterial growth incubated for 18 to 20 hrs by two fold serial dilution assay; format: functional; conditions: time 18-20 hrs
# Sequence of Voltage-gated inwardly rectifying potassium channel KCNH2 (Q12809 whole entry): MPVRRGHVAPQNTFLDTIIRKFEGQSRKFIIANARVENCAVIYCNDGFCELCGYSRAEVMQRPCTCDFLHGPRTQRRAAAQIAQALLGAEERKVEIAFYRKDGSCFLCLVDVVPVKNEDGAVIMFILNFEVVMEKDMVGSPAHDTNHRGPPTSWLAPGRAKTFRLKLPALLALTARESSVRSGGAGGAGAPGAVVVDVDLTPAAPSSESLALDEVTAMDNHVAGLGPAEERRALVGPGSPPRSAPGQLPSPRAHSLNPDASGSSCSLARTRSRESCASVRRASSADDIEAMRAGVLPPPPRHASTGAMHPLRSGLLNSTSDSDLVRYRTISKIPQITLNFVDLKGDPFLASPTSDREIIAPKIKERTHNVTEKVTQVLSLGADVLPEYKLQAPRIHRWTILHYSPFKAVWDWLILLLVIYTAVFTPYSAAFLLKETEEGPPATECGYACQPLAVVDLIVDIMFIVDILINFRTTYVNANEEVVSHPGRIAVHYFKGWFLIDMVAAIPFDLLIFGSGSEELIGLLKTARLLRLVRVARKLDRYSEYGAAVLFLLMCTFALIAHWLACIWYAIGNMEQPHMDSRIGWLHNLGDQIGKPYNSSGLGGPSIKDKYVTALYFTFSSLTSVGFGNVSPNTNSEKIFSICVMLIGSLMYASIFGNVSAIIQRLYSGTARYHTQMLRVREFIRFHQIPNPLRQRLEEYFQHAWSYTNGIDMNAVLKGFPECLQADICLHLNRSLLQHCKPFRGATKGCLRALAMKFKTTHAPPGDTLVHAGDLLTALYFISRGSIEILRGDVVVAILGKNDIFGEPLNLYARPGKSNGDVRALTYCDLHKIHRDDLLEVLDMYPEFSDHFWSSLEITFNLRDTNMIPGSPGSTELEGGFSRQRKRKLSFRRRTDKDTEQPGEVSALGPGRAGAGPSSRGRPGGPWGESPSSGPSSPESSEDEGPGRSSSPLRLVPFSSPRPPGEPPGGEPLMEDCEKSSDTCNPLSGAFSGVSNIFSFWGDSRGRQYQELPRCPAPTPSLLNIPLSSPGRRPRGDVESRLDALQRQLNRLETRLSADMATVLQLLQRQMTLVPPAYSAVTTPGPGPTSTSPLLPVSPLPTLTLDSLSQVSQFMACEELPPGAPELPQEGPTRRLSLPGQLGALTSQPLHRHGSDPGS
# Sequence of hERG (KCNH2) (Q12809 whole entry): as above
Compound,MIC (Pseudomonas aeruginosa [1]) [µg/mL],MIC (Escherichia coli [2]) [µg/mL],MIC (Escherichia coli [3]) [µg/mL],MIC (Escherichia coli [4]) [µg/mL],MIC (Acinetobacter baumannii [5]) [µg/mL],MIC (Klebsiella pneumoniae [6]) [µg/mL],MIC (Escherichia coli [7]) [µg/mL],MIC (Pseudomonas aeruginosa [8]) [µg/mL],MIC (Acinetobacter baumannii [9]) [µg/mL],MIC (Escherichia coli [10]) [µg/mL],MIC (Klebsiella pneumoniae [11]) [µg/mL],MIC (Acinetobacter baumannii [12]) [µg/mL],MIC (Pseudomonas aeruginosa [13]) [µg/mL],MIC (Pseudomonas aeruginosa [14]) [µg/mL],MIC (Escherichia coli [15]) [µg/mL],MIC (Acinetobacter baumannii [16]) [µg/mL],MIC (Escherichia coli [17]) [µg/mL],ED50 (Acinetobacter baumannii [18]) [mg/kg],MIC (Klebsiella pneumoniae [19]) [µg/mL],MIC (Klebsiella pneumoniae [20]) [µg/mL],other results
Nc1nc(/C(=N/O[C@@H](C(=O)O)C2CCC(F)(F)CC2)C(=O)N[C@@H]2C(=O)N3C(C(=O)O)=C(CSCCNC(=O)c4ccc(O)c(O)c4Cl)CS[C@H]23)cs1.O=C(O)C(F)(F)F,≤ 0.03,0.25,0.5,0.06,0.25,0.5,0.25,8,1,1,2,0.25,2,1,1,0.5,≤ 0.03,7.3,4,0.25,inhibition at 40 µM (hERG (KCNH2)): 6.67%; MIC (Acinetobacter baumannii [21]): 0.5 µg/mL; MIC (Escherichia coli [22]): 0.25 µg/mL; MIC (Klebsiella pneumoniae [23]): 0.25 µg/mL; MIC (Escherichia coli [24]): 0.125 µg/mL; MIC (Klebsiella pneumoniae [25]): 1 µg/mL; MIC (Acinetobacter baumannii [26]): 0.5 µg/mL; MIC (Acinetobacter baumannii [27]): 0.5 µg/mL; MIC (Pseudomonas aeruginosa [28]): 0.25 µg/mL; fraction unbound at 35 min [29]: 0.105; IC50 [30]: > 40000 nM
CC(C)(O/N=C(\C(=O)N[C@@H]1C(=O)N2C(C(=O)[O-])=C(C[N+]3(CCNC(=O)c4ccc(O)c(O)c4Cl)CCCC3)CS[C@H]12)c1csc(N)n1)C(=O)O [CEFIDEROCOL],1,0.06,1,0.12,1,8,0.5,8,1,0.5,2,2,2,1,1,1,0.06,7,8,4,MIC (Acinetobacter baumannii [31]): 4 µg/mL; MIC (Pseudomonas aeruginosa [32]): 4 µg/mL; MIC (Acinetobacter baumannii [33]): 2 µg/mL; MIC (Acinetobacter baumannii [34]): 4 µg/mL; MIC (Acinetobacter baumannii [35]): 2 µg/mL; MIC (Acinetobacter baumannii [21]): 0.25 µg/mL; MIC (Escherichia coli [22]): 0.125 µg/mL; MIC (Acinetobacter baumannii [36]): 8 µg/mL; MIC (Klebsiella pneumoniae [23]): 8 µg/mL; MIC (Pseudomonas aeruginosa [37]): 2 µg/mL; MIC (Pseudomonas aeruginosa [38]): 2 µg/mL; MIC (Pseudomonas aeruginosa [39]): 2 µg/mL; MIC (Escherichia coli [24]): 2 µg/mL; MIC (Klebsiella pneumoniae [25]): 8 µg/mL; MIC (Acinetobacter baumannii [26]): 2 µg/mL; MIC (Acinetobacter baumannii [27]): 1 µg/mL; MIC (Pseudomonas aeruginosa [28]): 0.5 µg/mL; fraction unbound at 35 min [29]: 0.801; IC50 [30]: 42 nM
